In brackets after ≈: the same amount, converted by molar mass. Entries after “also recorded” stand apart in the source; their conditions may differ. Square brackets hold non-standard residues; d marks the D form. Peptide text beside a SMILES is read from it. Aib = CC(C)(N)C(=O)O
Experiments:
Escherichia coli DH5α = format: cell-based; settings: broth microdilution, 10^4 CFUs per mL, 18 h at 35 °C; MIC = lowest concentration that completely inhibited bacterial growth; final conc. 0.39 to 100
Method: (§1) The antimicrobial activities of peptides 1–8 against Gram-positive Staphylococcus aureus, Gram-negative Escherichia coli DH5α, Pseudomonas aeruginosa, and multidrug-resistant P. aeruginosa (MDRP) were evaluated. The minimum inhibitory concentration (MIC) against these bacteria was measured as an indicator of antimicrobial activity, and the results are discussed in Table 2.
(§2) One type of Gram-positive bacteria, S. aureus NBRC 13276, and three Gram-negative bacteria, E. coli DH5α, P. aeruginosa NBRC 13275, and MDRP, were selected for the evaluation of the antimicrobial activity of the synthesized peptides. The selected bacterial strains were obtained from the Biological Resource Center, NITE (NBRC; Tokyo, Japan), and Escherichia coli DH5α cells were purchased from BioDynamics Laboratory, Inc. (Tokyo, Japan). The antimicrobial activities of the tested peptides 1–8 against each stain were examined by the standard broth microdilution method, as previously reported. Briefly, the bacteria were seeded and grown overnight at 37 °C on Agar media for other organisms i (Agar medium) and then collected with the media for other organisms ii (liquid medium), according to the 17th revision of Japanese Pharmacopoeia. Next, 10 μL of the peptide solution per well was added to each well of a sterile 96-well plate, and 90 μL per well of inoculation was mixed with 10^4 CFUs (colony forming units) per mL and added to each well, and the plate was incubated for 18 h at 35 °C.

S. aureus NBRC 13276 = format: cell-based, Staphylococcus aureus; settings: NBRC 13276, 18 h
Method: as §1, §2

P. aeruginosa NBRC 13275 = format: cell-based, Pseudomonas aeruginosa; settings: NBRC 13275, 18 h
Method: as §1, §2

[1] = tested on: multidrug-resistant P. aeruginosa (MDRP); format: cell-based, Pseudomonas aeruginosa; settings: multidrug-resistant (MDRP, 18 h)
Method: as §1, §2

human red blood cells = test: Hemolysis activity against red blood cells; settings: human RBCs in 172 mM Tris-HCl pH 7.6, 30 min at 37 °C, absorbance 535 nm; DMSO = 0%, M-Lycotoxin = 100%; final peptide conc. 100 to 0.39
Method: AMPs primarily target microbial membranes, leading to their antimicrobial activity through membrane lysis. However, it is important to consider their potential effects on human cell membranes, as this could raise concerns regarding cytotoxicity. […] Hemolytic activity was assessed by measuring the absorption at 535 nm, which indicates the leakage of red blood cell cytoplasmic contents and hemoglobin.
Human red blood cells (RBCs) were supplied by the Japanese Red Cross Society (Tokyo, Japan). The hemolytic assay of the synthesized peptides was performed as previously reported. Briefly, 5.0 mL of the total erythrocytes were washed three times with 172 mM Tris-HCl buffer (pH = 7.6, wash buffer:WB) and 1.0 mL of precipitated erythrocytes was diluted with 9.0 mL of WB. Then, 0.5 mL of the suspension was diluted in WB, and 50 µL of RBC solution was incubated with 50 µL of each peptide for 30 min at 37 °C (final peptide conc. from 100 to 0.39 μM). The suspensions were then centrifuged at 400 rpm for 5 min. The absorbance of the supernatant was measured at a wavelength of 535 nm. M-Lycotoxin [22], which is a typical hemolytic toxic peptide derived from Wolf spider, was used as a positive control, and the absorbance of the sample from DMSO and M-Lycotoxin treatment was defined as 0 and 100%, respectively.

Proteinase K = Proteinase K (Parengyodontium album, UniProt P06873); test: Digestion assay with proteinase K; format: in vitro ADME; settings: 0.002% (v/v) proteinase K, peptide 1 mM, 37 °C, 24 h; fragments by LC-MS
Sequence of Proteinase K (P06873 106-384): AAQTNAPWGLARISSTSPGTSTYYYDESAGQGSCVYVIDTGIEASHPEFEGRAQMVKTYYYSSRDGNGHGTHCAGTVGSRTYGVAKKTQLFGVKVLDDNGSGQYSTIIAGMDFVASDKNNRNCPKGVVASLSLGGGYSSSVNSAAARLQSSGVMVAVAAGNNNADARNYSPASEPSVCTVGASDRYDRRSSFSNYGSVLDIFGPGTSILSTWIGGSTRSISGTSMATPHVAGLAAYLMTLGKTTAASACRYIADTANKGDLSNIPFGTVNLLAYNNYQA
Method: The chemical stability of 17KKV-Aib (1) was investigated using a digestion assay with proteinase K, which is a widely used representative protease for assessing sensitivity to digestive enzymes. Proteinase K is widely recognized for its ability to cleave peptide bonds on the carboxylic sides of aliphatic, aromatic, or highly hydrophobic amino acids. Peptide 1 was treated with proteinase K for 24 h, and the remaining peptide fragments were evaluated using liquid phase chromatography–mass spectrometry (LC-MS) analysis. […] All the peptides were synthesized using Fmoc-assisted solid-phase methods by Liberty Blue. […]
Each peptide (1 mM) was treated with 0.002% (v/v) Proteinase K, and the mixture was incubated at 37 °C for 2–24 h. […] The residual peptides were assessed by analytical HPLC using an InertSustainSwift C18 column (3 µm, 25 cm × 4.6 mm, solvent A: water containing 0.1% TFA, solvent B: MeCN containing 0.1% TFA, flow rate: 1.0 mL/min, gradient: 10–90% gradient of solvent B over 30 min). The digestion assay was performed in two independent experiments, and the average values from them were calculated. […]
Figure 4 Chemical stability of the peptides 1–8 against proteinase K. Each peptide was incubated with 0.002% (v/v) proteinase K for the indicated times at 37 °C, and the residuals were evaluated by LC-MS. […]

## CC[C@H](C)[C@H](NC(=O)CN)C(=O)N[C@@H](CCCCN)C(=O)N[C@@H](CCCCN)C(=O)N[C@@H](Cc1ccccc1)C(=O)N[C@@H](CC(C)C)C(=O)N[C@@H](CCCCN)C(=O)N[C@@H](CO)C(=O)NC(C)(C)C(=O)N[C@@H](CCCCN)C(=O)N[C@@H](CCCCN)C(=O)N[C@@H](Cc1ccccc1)C(=O)N[C@H](C(=O)N[C@@H](CCCCN)C(=O)NC(C)(C)C(=O)N[C@@H](Cc1ccccc1)C(=O)N[C@@H](CCCCN)C(N)=O)C(C)C [Peptide 1] (H-GIKKFLKS[Aib]KKFVK[Aib]FK-NH2)
Escherichia coli DH5α
  MIC, E. Coli DH5α, Gram(−): 1.56 µM (≈ 3.11 µg/mL)
S. aureus NBRC 13276
  MIC, S. aureus, Gram(+): 12.5 µM (≈ 24.9 µg/mL)
P. aeruginosa NBRC 13275
  MIC, P. aeruginosa, Gram(−): 3.125 µM (≈ 6.24 µg/mL)
[1]
  MIC, MDRP: 6.25 µM (≈ 12.5 µg/mL)
Human red blood cells
  Hemolysis (concentration at which hemolytic activity is exhibited): 100 µM
Proteinase K
  Cleavage site upon proteinase K treatment: between 5th Phe and 6th Leu and 16th Phe and 17th Lys residues; also recorded: between the fifth Phe and sixth Leu residues

From paper PMC10451648 (Antibiotics, 2023)
